Measured values: patent publication US7709636B2, “Pyrazole sulfonylurea compound and herbicide” (Nissan Chemical Industries, Ltd., priority 2004, dated 2010)

What was measured:
[1] = system: Amaranthus retroflexus; test: Herbicidal effect test by foliage treatment; assay type: in vivo; details: 1.6 g/a; foliage treatment after growth of 14 days; 3 weeks after treatment
How it was run: (§1)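 Post-emergence foliar spray: plants raised 14 d in greenhouse (25–30° C) from seed in sterilized diluvial soil, sprayed with diluted wettable powder formulation, injury rated visually at 3 wk.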

[2] = system: Abutilon avicennae; test: Herbicidal effect test by foliage treatment; assay type: in vivo; details: 1.6 g/a; foliage treatment after growth of 14 days; 3 weeks after treatment
How it was run: as §1

[3] = system: Digitaria adscendes; test: Herbicidal effect test by foliage treatment; assay type: in vivo; details: 1.6 g/a; foliage treatment after growth of 14 days; 3 weeks after treatment
How it was run: as §1

[4] = system: Echinochloa crus-galli; test: Herbicidal effect test by foliage treatment; assay type: in vivo; details: 1.6 g/a; foliage treatment after growth of 14 days; 3 weeks after treatment
How it was run: as §1

[5] = system: Setaria viridis; test: Herbicidal effect test by foliage treatment; assay type: in vivo; details: 1.6 g/a; foliage treatment after growth of 14 days; 3 weeks after treatment
How it was run: as §1

[6] = system: soybean (Glycine max); test: Herbicidal effect test by foliage treatment; assay type: in vivo; details: 1.6 g/a; foliage treatment after growth of 14 days; 3 weeks after treatment
How it was run: as §1

[7] = system: Ambrosia elatior; test: Herbicidal effect test by foliage treatment; assay type: in vivo; details: 1.6 g/a; foliage treatment after growth of 14 days; 3 weeks after treatment
How it was run: as §1

[8] = system: Triticum aestivum (wheat); test: Herbicidal effect test by foliage treatment; assay type: in vivo; details: 1.6 g/a; foliage treatment after growth of 14 days; 3 weeks after treatment
How it was run: as §1

[9] = system: Stellaria media; test: Herbicidal effect test by foliage treatment; assay type: in vivo; details: 1.6 g/a; foliage treatment after growth of 14 days; 3 weeks after treatment
How it was run: as §1

[10] = system: Polygonum blumei; test: Herbicidal effect test by foliage treatment; assay type: in vivo; details: 1.6 g/a; foliage treatment after growth of 14 days; 3 weeks after treatment
How it was run: as §1

[11] = system: Chenopodium album; test: Herbicidal effect test by foliage treatment; assay type: in vivo; details: 1.6 g/a; foliage treatment after growth of 14 days; 3 weeks after treatment
How it was run: as §1

[12] = system: Black-grass; test: Herbicidal effect test by foliage treatment; assay type: in vivo; details: 1.6 g/a; foliage treatment after growth of 14 days; 3 weeks after treatment
How it was run: as §1

[13] = system: Beta vulgaris (beet); test: Herbicidal effect test by foliage treatment; assay type: in vivo; details: 1.6 g/a; foliage treatment after growth of 14 days; 3 weeks after treatment
How it was run: as §1

[14] = system: corn (Zea mays); test: Herbicidal effect test by foliage treatment; assay type: in vivo; details: 1.6 g/a; foliage treatment after growth of 14 days; 3 weeks after treatment
How it was run: as §1

[15] = system: Avena fatua; test: Herbicidal effect test by foliage treatment; assay type: in vivo; details: 1.6 g/a; foliage treatment after growth of 14 days; 3 weeks after treatment
How it was run: as §1

[16] = system: Echinochloa crus-galli; test: Herbicidal effect test in submerged condition by treatment during weed-growth stage (1); assay type: in vivo; details: 0.64 g/a, treated at 1st to 2nd leaf stage, 3 weeks after treatment
How it was run: (§2)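 Paddy-soil pots flooded to 4 cm water depth were sown and grown in a greenhouse at 25 to 30° C until weeds reached 1st to 2nd leaf stage. A wettable powder diluted in water to a predetermined formulation amount was applied to the water surface. Herbicidal effect was scored 3 weeks after treatment against set criteria.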

[17] = system: Scirpus juncoides; test: as above; assay type: in vivo; details: 0.64 g/a, treated at 1st to 2nd leaf stage, 3 weeks after treatment
How it was run: as §2

[18] = system: Monochoria vaginalis; test: as above; assay type: in vivo; details: 0.64 g/a, treated at 1st to 2nd leaf stage, 3 weeks after treatment
How it was run: as §2

[19] = system: Amaranthus retroflexus; test: Herbicidal effect test by soil treatment; assay type: in vivo; details: 1.6 g/a, 3 weeks after treatment
How it was run: (§3)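 Pre-emergence soil application: wettable powder formulation, water-diluted to set dose, sprayed evenly over soil surface after sowing; seeds under ~1.5 cm sterilized diluvial soil. Effect rated at 3 wk by criteria scale.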

[20] = system: Abutilon avicennae; test: Herbicidal effect test by soil treatment; assay type: in vivo; details: 1.6 g/a, 3 weeks after treatment
How it was run: as §3

[21] = system: Digitaria adscendes; test: Herbicidal effect test by soil treatment; assay type: in vivo; details: 1.6 g/a, 3 weeks after treatment
How it was run: as §3

[22] = system: Echinochloa crus-galli; test: Herbicidal effect test by soil treatment; assay type: in vivo; details: 1.6 g/a, 3 weeks after treatment
How it was run: as §3

[23] = system: Setaria viridis; test: Herbicidal effect test by soil treatment; assay type: in vivo; details: 1.6 g/a, 3 weeks after treatment
How it was run: as §3

[24] = system: soybean (Glycine max); test: Herbicidal effect test by soil treatment; assay type: in vivo; details: 1.6 g/a, 3 weeks after treatment
How it was run: as §3

[25] = system: Ambrosia elatior; test: Herbicidal effect test by soil treatment; assay type: in vivo; details: 1.6 g/a, 3 weeks after treatment
How it was run: as §3

[26] = system: Triticum aestivum (wheat); test: Herbicidal effect test by soil treatment; assay type: in vivo; details: 1.6 g/a, 3 weeks after treatment
How it was run: as §3

[27] = system: Stellaria media; test: Herbicidal effect test by soil treatment; assay type: in vivo; details: 1.6 g/a, 3 weeks after treatment
How it was run: as §3

[28] = system: Polygonum blumei; test: Herbicidal effect test by soil treatment; assay type: in vivo; details: 1.6 g/a, 3 weeks after treatment
How it was run: as §3

[29] = system: Chenopodium album; test: Herbicidal effect test by soil treatment; assay type: in vivo; details: 1.6 g/a, 3 weeks after treatment
How it was run: as §3

[30] = system: Black-grass; test: Herbicidal effect test by soil treatment; assay type: in vivo; details: 1.6 g/a, 3 weeks after treatment
How it was run: as §3

[31] = system: Beta vulgaris (beet); test: Herbicidal effect test by soil treatment; assay type: in vivo; details: 1.6 g/a, 3 weeks after treatment
How it was run: as §3

[32] = system: corn (Zea mays); test: Herbicidal effect test by soil treatment; assay type: in vivo; details: 1.6 g/a, 3 weeks after treatment
How it was run: as §3

[33] = system: Avena fatua; test: Herbicidal effect test by soil treatment; assay type: in vivo; details: 1.6 g/a, 3 weeks after treatment
How it was run: as §3

[34] = system: direct sown rice; test: Herbicidal effect test by foliage treatment; assay type: in vivo, Oryza sativa; details: 1.6 g/a; foliage treatment after growth of 14 days; 3 weeks after treatment
How it was run: as §1

[35] = system: direct sown rice; test: Herbicidal effect test by soil treatment; assay type: in vivo, Oryza sativa; details: 1.6 g/a, 3 weeks after treatment
How it was run: as §3

[36] = system: Echinochloa crus-galli; test: Herbicidal effect test in submerged condition by treatment before weed-generation (1); assay type: in vivo; details: 0.64 g/a, water surface treated on day of sowing, 3 weeks after treatment
How it was run: (§4)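 Pre-emergence water-surface application of diluted wettable-powder formulation at a predetermined rate, same day as sowing, in flooded alluvial soil (4 cm water) with transplanted 2.5-leaf rice. Grown 3 weeks at 25 to 30° C in greenhouse; rated 0–5 by herbicidal rate.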

[37] = system: Scirpus juncoides; test: as above; assay type: in vivo; details: 0.64 g/a, water surface treated on day of sowing, 3 weeks after treatment
How it was run: as §4

[38] = system: Monochoria vaginalis; test: as above; assay type: in vivo; details: 0.64 g/a, water surface treated on day of sowing, 3 weeks after treatment
How it was run: as §4

| SMILES | herbicidal effect, J: Amaranthus retroflexus [1] | herbicidal effect, H: Abutilon avicennae [2] | herbicidal effect, D: Digitaria adscendes [3] | herbicidal effect, A: Echinochloa crus-galli [4] | herbicidal effect, E: Setaria viridis [5] | herbicidal effect, c: soybean (Glycine max) [6] | herbicidal effect, I: Ambrosia elatior [7] | herbicidal effect, e: Triticum aestivum (wheat) [8] | herbicidal effect, M: Stellaria media [9] | herbicidal effect, L: Polygonum blumei [10] | herbicidal effect, K: Chenopodium album [11] | herbicidal effect, G: Black-grass [12] | herbicidal effect, f: Beta vulgaris (beet) [13] | herbicidal effect, b: corn (Zea mays) [14] | herbicidal effect, F: Avena fatua [15] | herbicidal effect, A: Echinochloa crus-galli [16] | herbicidal effect, B: Scirpus juncoides [17] | herbicidal effect, C: Monochoria vaginalis [18] | herbicidal effect, J: Amaranthus retroflexus [19] | herbicidal effect, H: Abutilon avicennae [20] | other results |
| --- | --- | --- | --- | --- | --- | --- | --- | --- | --- | --- | --- | --- | --- | --- | --- | --- | --- | --- | --- | --- | --- |
| COc1cc(OC)nc(NC(=O)NS(=O)(=O)c2c(C3=NOCC(C)(CI)O3)c(Cl)nn2C)n1 (stereo not shown) [Compound 4, N-((4,6-dimethoxypyrimidin-2-yl)aminocarbonyl)-3-chloro-4-(5-iodomethyl-5-methyl-5H,6H-1,4,2-dioxadin-3-yl)-1-methylpyrazole-5-sulfonamide] | 2 (Herbicidal rate 20% or more and less than 40%) | 4 (Herbicidal rate 70% or more and less than 90%) | 0 (Herbicidal rate 5% or less (little effect)) | 0 (Herbicidal rate 5% or less (little effect)) | 0 (Herbicidal rate 5% or less (little effect)) | 3 (Herbicidal rate 40% or more and less than 70%) | 3 (Herbicidal rate 40% or more and less than 70%) | 0 (Herbicidal rate 5% or less (little effect)) | 2 (Herbicidal rate 20% or more and less than 40%) | 3 (Herbicidal rate 40% or more and less than 70%) | 4 (Herbicidal rate 70% or more and less than 90%) | 0 (Herbicidal rate 5% or less (little effect)) | 1 (Herbicidal rate 5% or more and less than 20%) | 0 (Herbicidal rate 5% or less (little effect)) | 0 (Herbicidal rate 5% or less (little effect)) | 0 (Herbicidal rate 5% or less (little effect)) | 3 (Herbicidal rate 40% or more and less than 70%) | 3 (Herbicidal rate 40% or more and less than 70%) | 0 (Herbicidal rate 5% or less (little effect)) | 0 (Herbicidal rate 5% or less (little effect)) | herbicidal effect, D: Digitaria adscendes [21]: 0 (Herbicidal rate 5% or less (little effect)); herbicidal effect, A: Echinochloa crus-galli [22]: 0 (Herbicidal rate 5% or less (little effect)); herbicidal effect, E: Setaria viridis [23]: 0 (Herbicidal rate 5% or less (little effect)); herbicidal effect, c: soybean (Glycine max) [24]: 0 (Herbicidal rate 5% or less (little effect)); herbicidal effect, I: Ambrosia elatior [25]: 2 (Herbicidal rate 20% or more and less than 40%); herbicidal effect, e: Triticum aestivum (wheat) [26]: 0 (Herbicidal rate 5% or less (little effect)); herbicidal effect, M: Stellaria media [27]: 1 (Herbicidal rate 5% or more and less than 20%); herbicidal effect, L: Polygonum blumei [28]: 0 (Herbicidal rate 5% or less (little effect)); herbicidal effect, K: Chenopodium album [29]: 1 (Herbicidal rate 5% or more and less than 20%); herbicidal effect, G: Black-grass [30]: 0 (Herbicidal rate 5% or less (little effect)); herbicidal effect, f: Beta vulgaris (beet) [31]: 0 (Herbicidal rate 5% or less (little effect)); herbicidal effect, b: corn (Zea mays) [32]: 0 (Herbicidal rate 5% or less (little effect)); herbicidal effect, F: Avena fatua [33]: 0 (Herbicidal rate 5% or less (little effect)); herbicidal effect, d: direct sown rice [34]: 0 (Herbicidal rate 5% or less (little effect)); herbicidal effect, d: direct sown rice [35]: 0 (Herbicidal rate 5% or less (little effect)) |
| COc1cc(OC)nc(NC(=O)NS(=O)(=O)c2c(C3=NOCC(CI)O3)c(C)nn2C)n1 (stereo not shown) [Compound 6] | 4 (Herbicidal rate 70% or more and less than 90%) | 5 (Herbicidal rate 90% or more (almost complete death)) | 5 (Herbicidal rate 90% or more (almost complete death)) | 5 (Herbicidal rate 90% or more (almost complete death)) | 5 (Herbicidal rate 90% or more (almost complete death)) | 4 (Herbicidal rate 70% or more and less than 90%) | 5 (Herbicidal rate 90% or more (almost complete death)) | 4 (Herbicidal rate 70% or more and less than 90%) | 5 (Herbicidal rate 90% or more (almost complete death)) | 5 (Herbicidal rate 90% or more (almost complete death)) | 5 (Herbicidal rate 90% or more (almost complete death)) | 5 (Herbicidal rate 90% or more (almost complete death)) | 5 (Herbicidal rate 90% or more (almost complete death)) | 4 (Herbicidal rate 70% or more and less than 90%) | 3 (Herbicidal rate 40% or more and less than 70%) | 5 (Herbicidal rate 90% or more (almost complete death)) | 5 (Herbicidal rate 90% or more (almost complete death)) | 5 (Herbicidal rate 90% or more (almost complete death)) | 4 (Herbicidal rate 70% or more and less than 90%) | 3 (Herbicidal rate 40% or more and less than 70%) | herbicidal effect, D: Digitaria adscendes [21]: 4 (Herbicidal rate 70% or more and less than 90%); herbicidal effect, A: Echinochloa crus-galli [22]: 4 (Herbicidal rate 70% or more and less than 90%); herbicidal effect, E: Setaria viridis [23]: 3 (Herbicidal rate 40% or more and less than 70%); herbicidal effect, c: soybean (Glycine max) [24]: 3 (Herbicidal rate 40% or more and less than 70%); herbicidal effect, I: Ambrosia elatior [25]: 5 (Herbicidal rate 90% or more (almost complete death)); herbicidal effect, e: Triticum aestivum (wheat) [26]: 4 (Herbicidal rate 70% or more and less than 90%); herbicidal effect, M: Stellaria media [27]: 5 (Herbicidal rate 90% or more (almost complete death)); herbicidal effect, L: Polygonum blumei [28]: 5 (Herbicidal rate 90% or more (almost complete death)); herbicidal effect, K: Chenopodium album [29]: 5 (Herbicidal rate 90% or more (almost complete death)); herbicidal effect, G: Black-grass [30]: 5 (Herbicidal rate 90% or more (almost complete death)); herbicidal effect, f: Beta vulgaris (beet) [31]: 4 (Herbicidal rate 70% or more and less than 90%); herbicidal effect, b: corn (Zea mays) [32]: 4 (Herbicidal rate 70% or more and less than 90%); herbicidal effect, F: Avena fatua [33]: 0 (Herbicidal rate 5% or less (little effect)); herbicidal effect, d: direct sown rice [34]: 4 (Herbicidal rate 70% or more and less than 90%); herbicidal effect, d: direct sown rice [35]: 4 (Herbicidal rate 70% or more and less than 90%); herbicidal effect, A: Echinochloa crus-galli [36]: 5 (Herbicidal rate 90% or more (almost complete death)); herbicidal effect, B: Scirpus juncoides [37]: 5 (Herbicidal rate 90% or more (almost complete death)); herbicidal effect, C: Monochoria vaginalis [38]: 5 (Herbicidal rate 90% or more (almost complete death)) |
